How the values were obtained:
Assay type in all cases: cell-based
Mel624 = test: Short-term growth-inhibition assay (Example 1)
Experimental: (§1) FIGS. 1A-1B: Short-term growth-inhibition assay of a panel of melanoma cell lines including BRAF (V600E) cell lines and an NRAS (Q61R) mutated cell line. FIG. 1A. Cells were treated with increasing concentrations of N-[3-[(5-Chloro-1H-pyrrolo[2,3-b]pyridin-3-yl)carbonyl]-2,4-difluorophenyl]-1-propanesulfonamide (PLX-4720) for 72 h and cell viability was determined using CellTiter-Blue by measuring the absorbance at 540 nm in a microplate reader. Error bars show data +standard error. Means were derived from four replicates (n=4). FIG. 1B. Long-term colony formation assay of the indicated cells. Cells were grown in the absence or presence of PLX-4720 at the indicated concentrations for 15-20 days. For each cell line, all dishes were fixed at the same time, stained and photographed. […]
(§2) The inventors quantified the effect of exposing these cell lines to PLX-4720 on the half-maximum inhibitory concentration (IC50) (Table 1).

A2058 = test: Short-term growth-inhibition assay (Example 1)
Experimental: as §1, §2

[1] = tested on: eIF4E-eIF4G and eIF4E-4EBP1 interactions; test: Proximity ligation assay in cell lines
Excerpt: FIGS. 4A-4B: The interactions between eIF4E and eIG4G (“Cap-ON”) and between […] (“Cap-OFF” interaction) are (FIG. 4A) visualized by the PLA technique and (FIG. 4B) quantified (number of points per 100 nucleus) using ImageJ for the indicated cell lines and treatments.
FIGS. 5A-5C: The interactions between eIF4E and eIF4G (“Cap-ON”) and between […] (“Cap-OFF” interaction) are (FIG. 5A) visualized by the PLA technique and (FIG. 5B) quantified (number of points per 100 nucleus) using ImageJ for the indicated cell lines and treatments. (FIG. 5C) Cells were treated with increasing concentrations of PLX-4720 for 72 h, and cell viability was determined using CellTiter-Blue by measuring the absorbance at 540 nm in a microplate reader. Error bars show datatstandard error. Means were derived from four replicates (n=4).
FIGS. 9A-9B: The formation of the eIF4F translation initiation complex is associated with resistance to anti-BRAF inhibitors. FIG. 9A: Quantification of the proximity ligation assay showing the number of red spots (corresponding to the interactions between eIF4E-elF4G or eIF4E-4EBP1) per 100 nuclei (quantified with the Volocity software). Data are means±s.d. (n=3). Significance determined by Mann-Whitney U test (*P<0.05, **P<0.01). FIG. 9B: The eIF4E-eIF4G and eIF4E-4EBP1 interactions detected by in situ proximity ligation assay in vemurafenib (6 μM)-treated (24 h) or untreated HT29 colon cancer cell line and BCPAP thyroid cancer cell line respectively. The interactions were visualised as red fluorescent spots by the scanner Olympus VS120. Cell nuclei were stained with DAPI (blue).
Proximity ligation assays (PLAs) were performed on both fixed and permeabilized transfected cell lines in chamber slides and TMA slides containing melanoma tissue. Following dewaxing and rehydrating of tissue sections, antigen retrieval was performed by heating the slides for 30 min at 95° C. in TE buffer, pH 9. […] The number of in situ PLA signals per cell was counted by semi-automated image analysis. […]

[2] = sensitive cell lines A375, Mel888, treated vs untreated

SMILES: CCCS(=O)(=O)Nc1ccc(F)c(C(=O)c2c[nH]c3ncc(Cl)cc23)c1F [PLX-4720, N-[3-[(5-Chloro-1H-pyrrolo[2,3-b]pyridin-3-yl)carbonyl]-2,4-difluorophenyl]-1-propanesulfonamide]
- sensitivity of the cell line compared to the other BRAF (V600E)-mutated melanoma cell lines (Mel624; Mel624, short-term and long-term proliferation assays, Example 1): less sensitive
- IC50 (Mel624; Mel624 cell line, read-out: half-maximum inhibitory concentration (IC50)): 4.4 µM
- sensitivity of the cell line compared to the other BRAF (V600E)-mutated melanoma cell lines (A2058; A2058, short-term and long-term proliferation assays, Example 1): less sensitive
- IC50 (A2058; Homo sapiens, A2058 cell line, read-out: half-maximum inhibitory concentration (IC50)): 2.4 µM
- Cap-ON and Cap-OFF interaction ([1]; less sensitive / resistant cell lines Mel624, A2058): didn't affect
- eIF4E-4EBP1 (Cap-OFF) interaction [1, 2]: increase
- eIF4E-eIF4G (Cap-ON) interaction [1, 2]: reduced signal counts

Source: patent publication US20240393340A1, “PROGNOSIS AND PREDICTIVE BIOMARKERS AND BIOLOGICAL APPLICATIONS THEREOF” (INSTITUT GUSTAVE ROUSSY, priority 2013, published 2024)
